The text below walks through data of publication PMC5566834 (2017).

Molecules are shown by their SMILES.

The assay relates to Rd 13 (DNA, aptamer) CGGGGGGAGGCGGAGGGAGGACTGGGGCTTCATTGACGTTCTTCACAGTAGGGGTAAGGGCTTAGGTGGTTGGTGCCTG
As to the kind of experiment: competitive fluorescence anisotropy. The note with it: 140 mM Na+, 2 mM K+, 5 mM Mg2+, 2 mM Ca2+; 20 mM Tris pH 7.4; PosBD displaced; 1,000 pmol drug in 125 μl; less than posaconazole. For orientation: In fluorescence polarisation assays a small probe gives low polarisation when free and higher when bound to something large.

Regarding `OC(Cn1cncn1)(Cn1cncn1)c1ccc(F)cc1F`, the binding result is “weak”.
